Article PMC5376326, “Inhibition of ANO1 by luteolin and its cytotoxicity in human prostate cancer PC-3 cells” (PLoS ONE, 2017)
Values joined by “and” are separate entries in the source; they are usually repeats but may differ in a detail not shown here. Identical values can stand only once.

Experiments:
ANO1 = target: T1, ANO1 (Homo sapiens, UniProt Q5XXA6); assay: YFP quenching assay of ANO1 activity in PC-3 cells; format: cell-based; details: PC-3 cells expressing high levels of ANO1; indicated concentrations
T1 construct: PC-3 prostate cancer cells expressing high levels of ANO1 endogenously; endogenous in cells; host or cells: PC-3 cells (clones with high ANO1 expression; stably transfected only with the YFP halide sensor)
T1 sequence (Q5XXA6 1-986): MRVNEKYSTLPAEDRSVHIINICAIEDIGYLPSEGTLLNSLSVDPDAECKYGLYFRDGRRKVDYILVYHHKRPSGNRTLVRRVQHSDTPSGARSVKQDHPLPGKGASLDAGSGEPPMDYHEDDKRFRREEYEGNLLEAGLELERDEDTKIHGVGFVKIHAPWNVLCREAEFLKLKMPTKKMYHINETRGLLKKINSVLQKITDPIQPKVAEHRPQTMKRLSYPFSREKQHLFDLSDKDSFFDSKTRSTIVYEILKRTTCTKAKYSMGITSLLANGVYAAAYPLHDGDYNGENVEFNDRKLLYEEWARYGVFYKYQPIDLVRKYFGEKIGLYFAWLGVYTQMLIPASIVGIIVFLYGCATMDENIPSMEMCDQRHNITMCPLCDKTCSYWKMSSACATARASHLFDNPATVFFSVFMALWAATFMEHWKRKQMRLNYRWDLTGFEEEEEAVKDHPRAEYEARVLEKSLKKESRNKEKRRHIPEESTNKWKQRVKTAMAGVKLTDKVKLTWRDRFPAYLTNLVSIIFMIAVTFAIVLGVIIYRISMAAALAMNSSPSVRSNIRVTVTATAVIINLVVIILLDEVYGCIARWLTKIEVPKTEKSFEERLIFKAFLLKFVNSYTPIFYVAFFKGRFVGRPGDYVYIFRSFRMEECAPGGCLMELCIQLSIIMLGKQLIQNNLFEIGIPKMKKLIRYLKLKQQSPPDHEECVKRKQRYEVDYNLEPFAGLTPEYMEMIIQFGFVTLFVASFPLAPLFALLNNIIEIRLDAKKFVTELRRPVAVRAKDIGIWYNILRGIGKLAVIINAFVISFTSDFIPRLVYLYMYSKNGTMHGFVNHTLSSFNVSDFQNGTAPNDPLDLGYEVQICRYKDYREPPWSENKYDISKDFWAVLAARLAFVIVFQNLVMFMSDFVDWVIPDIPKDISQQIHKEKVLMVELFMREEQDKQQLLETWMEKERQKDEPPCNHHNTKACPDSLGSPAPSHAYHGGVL
Protocol: Initial iodide influx rate was determined from the initial slope of fluorescence decrease, by nonlinear regression, following infusion of iodide with ATP.

human ANO1 (abc) = target: T2, human ANO1 (abc) (Homo sapiens, UniProt Q5XXA6, DEL476-501); assay: YFP fluorescence quenching assay (iodide influx) in FRT cells expressing human ANO1; format: cell-based; details: for IC50: FRT cells expressing ANO1 and YFP, ATP activation, mean ± S.E., n = 3, read-out: IC50, ANO1 inhibition (YFP fluorescence quenching)
T2 sequence (Q5XXA6 with tags, fused parts or gaps isoform Q5XXA6-5 DEL539-564): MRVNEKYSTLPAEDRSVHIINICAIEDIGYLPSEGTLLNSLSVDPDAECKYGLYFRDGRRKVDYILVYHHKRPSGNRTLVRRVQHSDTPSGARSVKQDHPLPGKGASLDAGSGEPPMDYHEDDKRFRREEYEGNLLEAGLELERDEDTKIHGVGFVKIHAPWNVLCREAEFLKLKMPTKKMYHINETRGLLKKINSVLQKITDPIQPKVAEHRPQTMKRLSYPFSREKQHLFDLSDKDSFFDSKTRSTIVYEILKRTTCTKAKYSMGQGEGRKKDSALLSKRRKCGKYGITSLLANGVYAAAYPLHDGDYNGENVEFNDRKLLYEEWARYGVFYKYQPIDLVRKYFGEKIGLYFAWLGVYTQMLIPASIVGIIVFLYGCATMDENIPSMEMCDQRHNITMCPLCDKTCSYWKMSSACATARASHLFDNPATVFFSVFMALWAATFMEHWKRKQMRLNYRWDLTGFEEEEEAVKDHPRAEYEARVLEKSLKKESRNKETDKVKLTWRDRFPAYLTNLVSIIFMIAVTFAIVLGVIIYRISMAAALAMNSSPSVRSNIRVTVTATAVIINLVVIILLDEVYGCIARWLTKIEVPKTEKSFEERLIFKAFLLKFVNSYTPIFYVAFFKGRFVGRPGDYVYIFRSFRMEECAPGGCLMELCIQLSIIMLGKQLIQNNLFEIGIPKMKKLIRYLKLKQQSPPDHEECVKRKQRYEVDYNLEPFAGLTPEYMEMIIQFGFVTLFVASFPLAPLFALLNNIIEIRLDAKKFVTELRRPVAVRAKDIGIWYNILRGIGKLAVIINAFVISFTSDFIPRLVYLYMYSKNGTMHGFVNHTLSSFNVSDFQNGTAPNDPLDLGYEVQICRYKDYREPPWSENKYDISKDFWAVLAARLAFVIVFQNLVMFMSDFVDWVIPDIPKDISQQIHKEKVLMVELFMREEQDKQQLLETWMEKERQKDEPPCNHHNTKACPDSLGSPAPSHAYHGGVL
Protocol: Fisher rat thyroid (FRT) cells were stably transfected with human ANO1 (abc) or mouse ANO2 and the halide sensor YFP as described in previous study. FRT cells were cultured in Coon`s modified F12 medium with 10% FBS, 2 mM L-glutamine, 100 units/ml penicillin and 100 μg/ml streptomycin at 37°C and 5% CO2. PC-3 cells were grown in RPMI 1640 medium supplemented with 10% FBS, 100 units/ml penicillin and 100 μg/ml streptomycin at 37°C and 5% CO2. There were populations of PC-3 cells with high and low expression of ANO1. To separate high and low levels of ANO1 expressing PC-3 cells, cells were stably transfected with the halide sensor YFP-H148Q/I152L/F46L and then the cells were plated on 96 well plates at 1 cell per well. After two weeks of incubation, high and low levels of ANO1 expressing PC-3 cells were separated by YFP quenching assay. ANO1 was activated by 100 μM ATP.
ANO1 and YFP expressing FRT cells were plated in 96-well black-walled microplates (Corning Inc., Corning, NY) at a density of 20,000 cells per well. Assays were done using FLUOstar Omega microplate reader (BMG Labtech, Ortenberg, Germany) and MARS Data Analysis Software (BMG Labtech) as described in our previous study. Briefly, each well of 96-well plate was washed 3 times in PBS (200 μL/wash) and test compounds were added to each well at 25 μM final concentration. After 10 minutes incubation at 37°C, 96-well plates were transferred to the plate reader for fluorescence assay. Each well was assayed individually for ANO1-mediated I^- influx by monitoring YFP fluorescence continuously (400 ms per point) for 2 s (baseline), then 140 mM I^- solution containing 200 μM ATP was added at 2 s and then YFP fluorescence was recorded for 6 s. Initial iodide influx rate was determined from the initial slope of fluorescence decrease, by nonlinear regression, following infusion of iodide with ATP.

Compound	Inhibition of ANO1 activity (ANO1)	IC50 (human ANO1 (abc))	Block of ATP-induced ANO1 activation (YFP) (human ANO1 (abc); 100 μM)
O=c1c(O)c(-c2ccc(O)cc2)oc2cc(O)cc(O)c12 [Kaempferol]	significantly inhibited	14.55 ± 0.03 µM	
O=c1cc(-c2ccc(O)c(O)c2)oc2cc(O)cc(O)c12 [luteolin]	potently inhibited	9.37 µM and ~9.4 µM	almost completely blocked
